# Reference: patent publication US20230277583A1, “ENTERAL CARBON MONOXIDE FOR THE PREVENTION AND TREATMENT OF OCULAR DISEASES” (Augusta University Research Institute, Inc., priority 2022, published 2023)
# Tests used:
# [1] = low dose CO reaching <20% COHb saturation; cited from earlier work
# [2] = CO concentration achievable in aqueous composition at various temperature and pressure; format: physicochemical
# Protocol: For example, CO can be dissolved in an aqueous liquid under higher than ambient pressure. The use of pressure to dissolve the CO increases the achievable concentration of CO in solution. […] For example, lowering of the temperature below 2° C. and increasing the pressure above 10 ATM can achieve an even greater concentration of CO dissolved in the aqueous solution. […] Although raising the pressure above 10 ATM might not be commercially practicable, it is technologically feasible at this time.
# The method of making a CO-containing liquid composition relies on the use of greater than atmospheric pressure (i.e., “high” pressure) to increase the amount of CO dissolved in the liquid composition. In some embodiments, at least 1.1 atmospheres (ATM) of pressure is used in the process of introducing CO into the liquid composition. Preferably, where high pressure is used, at least 1.2 ATM is used. In certain exemplary embodiments, 2 ATM, 3 ATM, or 5 ATM is used during introduction of CO into the liquid composition. It is contemplated that pressures above 5 ATM are also suitable, such as 6 ATM, 7 ATM, 8 ATM, and 10 ATM or higher. In accordance with the discussion concerning ranges set forth above, all specific values, and all possible ranges, falling within the atmospheric conditions discussed herein are contemplated. Furthermore, variations in the source of CO, the equipment used to introduce the CO into the liquid composition, the pressure of the CO being used (i.e., volume supplied per unit time), and the atmospheric pressures used will affect the amount of time required to achieve a suitable concentration of CO in the composition.
# The method of making a CO-containing liquid composition preferably includes subjecting the composition to a low temperature during the step of exposing the liquid to CO. […] A low temperature is typically a temperature at or below 4° C., preferably at or below 2° C., such as 1° C., 0° C., −1° C., −2° C., −3° C., −4° C., −5° C., −6° C., −10° C., −12° C., −14° C., −16° C., −18° C., −20° C., or below. In embodiments where the composition is exposed to a low temperature, it is preferred that the CO-containing liquid composition be sealed to preclude loss of dissolved CO over time. Accordingly, in embodiments, the method of making a CO-containing liquid composition includes dispensing the liquid composition into a sealable container and sealing the container after an appropriate amount of CO has been dissolved in the liquid composition. Dispensing of the liquid can be performed before, during, or after dissolving CO into the liquid composition. Typically, sealing will be performed under low temperature to minimize loss of dissolved CO during the process of sealing. As discussed above, any number of sealable containers and caps are known in the art of bottling and canning of liquids, and any of these can be used within the context of the present disclosure. For the sake of clarity, in embodiments where both high pressure and low temperature are used, it is preferred that sealing be performed under both high pressure and low temperature, although the same pressure and temperature used for dissolving CO into the liquid need not be used. Further, it is to be understood that, once the CO-containing liquid is sealed in a container under CO gas, it is not necessary to maintain the sealed container at high pressure and low temperature, as the sealed container will not allow dissolved CO to escape from solution.
# [3] = cited from earlier work
smiles,measurement,setting,value
"[C-]#[O+] [CO, carbon monoxide]",safety and tolerability,[1],safe and tolerable
same,CO Concentration Achievable in Aqueous Composition,"[2]; 2° C., 1 ATM",40 mg/L water
same,CO Concentration in Aqueous Solution,"[2]; 2° C., 1 ATM",40 mg/L water
same,CO Concentration Achievable in Aqueous Composition,"[2]; 2° C., 2 ATM",80 mg/L water
same,CO Concentration in Aqueous Solution,"[2]; 2° C., 2 ATM",80 mg/L water
same,CO Concentration Achievable in Aqueous Composition,"[2]; 2° C., 3 ATM",120 mg/L water
same,CO Concentration in Aqueous Solution,"[2]; 2° C., 3 ATM",120 mg/L water
same,CO Concentration Achievable in Aqueous Composition,"[2]; 2° C., 5 ATM",200 mg/L water
same,CO Concentration in Aqueous Solution,"[2]; 2° C., 5 ATM",200 mg/L water
same,CO Concentration Achievable in Aqueous Composition,"[2]; 2° C., 10 ATM",400 mg/L water
same,CO Concentration in Aqueous Solution,"[2]; 2° C., 10 ATM",400 mg/L water
same,CO Concentration Achievable in Aqueous Composition,"[2]; 21° C., 1 ATM",25 mg/L water
same,half-life of the alpha-phase of CO in the human bloodstream,[3],4 to 6 h
